Assay [1] has as its system ulcer index (corpus of stomack). Briefly: Cytoprotection (0.2N NaOH-induced gastric lesions, oral compound). The assay is classed as in vivo. To be noted: 30 minutes before oral 0.2N NaOH, read-out: ED50 (dose by which the ulcer index decreased to 50% of control). As to the method:
According to the method by A. Robert (Gartroerterolegy, 77(3), 443 (1979)), 30 minutes after oral administration of the compound, 0.2N NaOH was administered orally to the animals. After an hour, the animal was sacrified by chloroform anesthesia and the stomack was removed and fixed in 5% formalin solution. After fixation, the stomack was cut along the great curvature. A total length of blooding spot appearing on the corpus of stomack was measured and served as the ulcer index. When the ulcer index of the control group is taken as 100%, the dose of the compound by which the ulcer index decreased to 50% is designated as ED50.

In assay [2] the test system is gastric acid secretion. Nature of the assay: Gastric acid secretion-inhibiting action by pylorus ligation (Shay's method). The assay is classed as in vivo. The following applies: Rattus norvegicus, injected into duodenum, 5 hours, 5 animals in a group. How it is done: Gastric acid secretion-inhibiting action by pylorus ligation
According to the Shay's method (Gastroeuterology 5, 43 (1945)), median section was performed on abdomen of the rat under ether anesthesia and pylorus was ligated with thread. At the same time, the compound was injected into duodenum and then the incision was closed. After 5 hours, the abdomen was incised again and whole stomach was removed after ligating esophagus. The great curvature of the stomack was incised and the content was transferred to a graduated centrifuge tube. After centrifugation at 3000 rpm for 10 minutes, the volume of the gastric juice was measured. A part of the supernatant was sampled and was titrated with 0.1N NaOH until the pH became 7 using pH star (commercially available from Radio Meter Co., Ltd.).

The test system of assay [3] is gastric acid secretion. Nature of the assay: Gastric acid secretion-inhibiting action (pentagastrin-stimulated, perfused stomach). Format: in vivo, Male SD rat. The following applies: PGE2 = 1; pentagastrin 0.05 μg/kg/min; femoral vein injection; area under pH curve. As to the method: Gastric acid secretion-inhibiting action
Male SD rat was incised in the abdomen under urethane anesthesia to open a hole at lumen of stomach. A double cannula was inserted from the hole and physiological saline was perfused in the stomack. The gastric acid flowed out was monitored by a pH meter (M. Chosh, H. Schild Br.J. Pharmacol 13, 54 (1958)). When the pH of the gastric acid was stabilized to about 4 after stimulation with continuous injection of pentagastrin at a rate of 0.05 μg/kg/min, the compound was injected through the femoral vein. As an index of the gastric acid secretion-inhibiting effect was measured using area enclosed by the curve from the point at which the pH started to increase by the gastric acid secretion-inhibiting effect to the point at which the pH is come back to the baseline. The relative effectiveness of gastric acid secretion-inhibiting effect of a compound was expressed when the value of PGE2 is 1, and the effectiveness of each compound was compared.

Assay [4] has as its system platelet aggregation. Nature of the assay: Platelet aggregation-inhibiting action (ADP-induced, platelet-rich plasma). Format: cell-based. To be noted: ADP 10 μM, compound added 1 minute before ADP, human PRP, read-out: IC50 (concentration which inhibits 50% platelet aggregation). How it is done:
Blood taken from human median cubital vein was centrifuged at 800 rpm for 10 minutes and the upper part was collected as platelet-rich plasma (PRP). PRP was put into small test tubes and […] (ADP) was added thereto (final concentration of 10 μM) to induce platelet aggregation. The degree of platelet aggregation was measured as the change of turbidity determined by using a platelet aggregation measuring apparatus (commercially available from Rikadenki Co., Ltd., Tokyo). The compound was added 1 minute before the addition of ADP. The concentration which inhibits 50% aggregation was designated as IC50.

For assay [5], the system named is pressure of carotid arteries. Nature of the assay: Hypotensive effect (carotid artery pressure, chloralose anesthesia). Format: in vivo, Wistar rat (male). To be noted: Rattus norvegicus, femoral catheter injection, read-out: ED25 mmHg (dose which may reduce the blood pressure by 25 mmHg). How it is done: Under chloralose anesthesia, catheter was inserted to carotid arteries of Wistar rat (male). The catheter was connected to a polygraph via pressure transducer to measure the pressure of carotid arteries. The compound was injected via catheter connected to a femoral articles. The dose which may reduce the blood pressure by 25 mmHg from the dose-response curve was designated as ED25. The effectiveness of each compound was compared based on it.

[6] abbreviates: level of the acid (mEq/ml), read-out: ED50 Gastric Acid.
Where [7] appears, read: volume decreased to 50% of control, read-out: ED50 Volume of Gastric Juice.

Structures are written as SMILES. In brackets after ≈: the same amount, converted by molar mass. Like-named read-outs stand apart in the source and are kept apart here. Some results are limits rather than exact numbers.

Take `O=C(O)CCc1cccc2c1O[C@H]1C[C@@H](O)[C@H](/C=C/[C@@H](O)C3CCCCC3)[C@@H]21` (relative stereo) [Compound 60, 15-cyclohexyl-2,5,6,7,16,17,18,19,20-nonanor-4,8-inter-m-phenylene PGI2]: the figures for the ED50 in assay [1], in assay [2] (setting [6]) and in assay [2] (setting [7]) were 6.79 µg/kg, 2.39 mg/kg and 1.19 mg/kg, respectively. Moreover, in assay [3], the “Relative Effectiveness to PGE2 (gastric acid secretion inhibition)” value was determined as 1.3. Moreover, in assay [4], the IC50 stood at 3.8 ng/mL (≈ 0.00983 µM). Moreover, the ED (25 mmHg) in assay [5] was 0.17 µg/kg.

Take `CCCCCC[C@H](O)/C=C/[C@@H]1[C@H]2c3cccc(CCC(=O)O)c3O[C@H]2C[C@H]1O` (relative stereo) [Compound 45, 20a-homo-2,5,6,7-tetranor-4,8-inter-m-phenylene PGI2]: in assay [3], the “Relative Effectiveness to PGE2 (gastric acid secretion inhibition)” value came out at 3.5.

Consider `CCCCC(C)[C@H](O)/C=C/[C@@H]1[C@H]2c3cccc(CCC(=O)O)c3O[C@H]2C[C@H]1O` (some centres unmarked) [Compound 51, 16-methyl-2,5,6,7-tetranor-4,8-inter-m-phenylene PGI2], for which the results for the median effective dose (ED50) in assay [1], in assay [2] (setting [6]) and in assay [2] (setting [7]) were 0.46 µg/kg, 0.21 mg/kg and 0.36 mg/kg, respectively. Besides, the “Relative Effectiveness to PGE2 (gastric acid secretion inhibition)” value in assay [3] is listed as 35. Besides, in assay [5], the ED (25 mmHg) worked out at 0.11 µg/kg.

For `CCCCC[C@H](O)/C=C/[C@H]1[C@H](O)CC(=O)[C@@H]1C/C=C\CCCC(=O)O` [PGE2, reference compound], the “Relative Effectiveness to PGE2 (gastric acid secretion inhibition)” value in assay [3] stood at 1.

Regarding `CC(C)(Oc1ccccc1)[C@H](O)/C=C/[C@@H]1[C@H]2c3cccc(CCC(=O)O)c3O[C@H]2C[C@H]1O` (relative stereo) [Compound 124, 16-methyl-16-phenoxy-2,5,6,7,18,19,20-heptanor-4,8-inter-m-phenylene PGI2], the figures for the median effective dose (ED50) in assay [1], in assay [2] (setting [6]) and in assay [2] (setting [7]) were 3 µg/kg, 0.19 mg/kg and 0.75 mg/kg, respectively. In addition, in assay [3], the “Relative Effectiveness to PGE2 (gastric acid secretion inhibition)” value is listed as 62. Also, the ED (25 mmHg) in assay [5] worked out at 1.3 µg/kg.

Turning to `CCOCC(C)(C)[C@H](O)/C=C/[C@@H]1[C@H]2c3cccc(CCC(=O)O)c3O[C@H]2C[C@H]1O` (relative stereo) [Compound 108, 16,16-dimethyl-2,5,6,7-tetranor-18-oxa-4,8-inter-m-phenylene PGI2], the ED50 in assay [1] is 3.5 µg/kg; in assay [2] (setting [6]) it was 2.02 mg/kg; in assay [2] (setting [7]), more than 10 mg/kg. The “Relative Effectiveness to PGE2 (gastric acid secretion inhibition)” value in assay [3] worked out at 7.0.

Consider `CCCCC(C)(C)[C@H](O)/C=C/[C@@H]1[C@H]2c3cccc(CCC(=O)O)c3O[C@H]2C[C@H]1O` (relative stereo) [Compound 48, 16,16-dimethyl-2,5,6,7-tetranor-4,8-inter-m-phenylene PGI2], for which the values for the median effective dose (ED50) in assay [1], in assay [2] (setting [6]) and in assay [2] (setting [7]) were 2.3 µg/kg, 0.63 mg/kg and 6.3 mg/kg, respectively. In addition, in assay [4], the IC50 came out at 1000 ng/mL (≈ 2.48 µM). Also, the ED (25 mmHg) in assay [5] was determined as 0.84 µg/kg.

`CCCCC[C@H](O)/C=C/[C@@H]1[C@H]2c3cccc(CCC(=O)O)c3O[C@H]2C[C@H]1O` (relative stereo) [Compound 42, 2,5,6,7-tetranor-4,8-inter-m-phenylene PGI2]: the figures for the median effective dose (ED50) in assay [1], in assay [2] (setting [6]) and in assay [2] (setting [7]) were 48.6 µg/kg, 3.8 mg/kg and 4.6 mg/kg, respectively. Besides, the “Relative Effectiveness to PGE2 (gastric acid secretion inhibition)” value in assay [3] is 3.6. In assay [4], the IC50 is 5.8 ng/mL (≈ 0.0155 µM). Further, the ED (25 mmHg) in assay [5] came out at 0.46 µg/kg.

With `O=C(O)CCc1cccc2c1O[C@H]1C[C@@H](O)[C@H](/C=C/[C@@H](O)COc3ccccc3)[C@@H]21` (relative stereo) [Compound 120, 16-phenoxy-2,5,6,7,17,18,19,20-octanor-4,8-inter-m-phenylene PGI2], the ED50 came out at 4.56 µg/kg in assay [1], 0.11 mg/kg in assay [2] (setting [6]) and 0.3 mg/kg in assay [2] (setting [7]). Besides, the “Relative Effectiveness to PGE2 (gastric acid secretion inhibition)” value in assay [3] amounted to 54. For the same compound, the IC50 in assay [4] came to 1000 ng/mL (≈ 2.44 µM). Also, the ED (25 mmHg) in assay [5] stood at 0.51 µg/kg.

Take `CCCOC[C@H](O)/C=C/[C@@H]1[C@H]2c3cccc(CCC(=O)O)c3O[C@H]2C[C@H]1O` (relative stereo) [Compound 101, 2,5,6,7-tetranor-17-oxa-4,8-inter-m-phenylene PGI2]: the values for the ED50 in assay [1], in assay [2] (setting [6]) and in assay [2] (setting [7]) were 78.9 µg/kg, 0.9 mg/kg and 1.4 mg/kg, respectively. The “Relative Effectiveness to PGE2 (gastric acid secretion inhibition)” value in assay [3] is 4.9. Moreover, the ED (25 mmHg) in assay [5] turned out to be 1.5 µg/kg.

Consider `O=C(O)CCc1cccc2c1O[C@H]1C[C@@H](O)[C@H](/C=C/[C@@H](O)c3ccccc3)[C@@H]21` (relative stereo) [Compound 71, 15-phenyl-2,5,6,7,16,17,18,19,20-nonanor-4,8-inter-m-phenylene PGI2], for which the ED50 is 1.5 µg/kg in assay [1], 0.034 mg/kg in assay [2] (setting [6]) and 0.045 mg/kg in assay [2] (setting [7]). Besides, in assay [3], the “Relative Effectiveness to PGE2 (gastric acid secretion inhibition)” value amounted to 7.1. Besides, in assay [4], the IC50 stood at 2.85 ng/mL (≈ 0.00749 µM). Also, in assay [5], the ED (25 mmHg) was 0.26 µg/kg.

In the case of `CCC[C@H](C)C[C@H](O)/C=C/[C@@H]1[C@H]2c3cccc(CCC(=O)O)c3O[C@H]2C[C@H]1O` [Compound 54, 17-(S)-methyl-2,5,6,7-tetranor-4,8-inter-m-phenylene PGI2], the 50% effective dose (ED50) in assay [1] turned out to be 0.86 µg/kg; in assay [2] (setting [6]) it was 0.11 mg/kg; in assay [2] (setting [7]), 0.015 mg/kg. Further, in assay [3], the “Relative Effectiveness to PGE2 (gastric acid secretion inhibition)” value is reported as 6.1. The IC50 in assay [4] is 3.2 ng/mL (≈ 0.00824 µM). Further, the ED (25 mmHg) in assay [5] worked out at 0.78 µg/kg.

As usually defined, the ED50 is the dose at which the effect has come halfway, by size or by number of responders.

The values are drawn from patent US5401768A, “2,5,6,7-tetranor-4,8-inter-m-phenylene PGI2, derivative, manufacturing process thereof and its use” (Toray Industries, Inc., priority 1987, dated 1995).
